According to paper PMC8116058, “De novo macrocyclic peptides dissect energy coupling of a heterodimeric ABC transporter by multimode allosteric inhibition” (eLife, 2021):
Positions of bridges follow the written chain, without caps; N, C: chain ends. Non-standard residues stand in square brackets, D forms with d. Residues, ends and D or L forms follow the SMILES beside them. *: point of attachment. 5FAM = O=C1OC2(c3ccc(O)cc3Oc3cc(O)ccc32)c2ccc(C(=O)*)cc21; βAla = NCCC(=O)O

Tested on: detergent-solubilized IF or OF TmrA^EQB
Experiment: CP^F anisotropy with IF or OF TmrA^EQB under nucleotide conditions
Assay type: binding, Thermus thermophilus
Conditions: for Binding under nucleotide conditions: absence and presence of ATP and ADP
Description: ABC transport complexes such as TmrAB run through multiple conformational states along the ATP hydrolysis cycle to drive unidirectional substrate transport ([Hofmann et al., 2019]; [Stefan et al., 2020]). Within the substrate translocation cycle, two major conformers, inward-facing (IF) and outward-facing (OF), were identified. To investigate whether CPs favor one of these conformers, we probed the binding of CP^Fs by fluorescence polarization analysis. […] In the latter case, the interaction studies were performed immediately after the IF-to-OF switch by incubation with ATP for 5 min at 45°C. To exclude an OF-to-IF return (τ1/2 of 25 min) ([Stefan et al., 2020]), the fluorescence anisotropy was recorded only within the first minute of incubation.
Figure 5. […] (A, B) CP6^F (A) or CP13^F (B, 50 nM each) were incubated with increasing concentrations of detergent-solubilized inward-facing TmrAB (in the absence of Mg-ATP) or outward-facing TmrA^EQB, which was trapped with Mg-ATP (1 mM) for 5 min at 45°C as described ([Hofmann et al., 2019]; [Stefan et al., 2020]). Immediately after, the fluorescence anisotropy was assayed at λex/em = 485/520 nm. The difference in fluorescence polarization was normalized to free and fully bound CP^F. Data were fitted by a one-site binding model. […] TmrAB (2 µM each) were mixed with CP^Fs (4 µM), ATP (1 mM, traced with [α^32P]-ATP), and MgCl2 (5 mM) for 5 min at 4°C or 45°C. Cold ATP (10 mM) was added, and freely exchangeable nucleotides were removed by rapid gel filtration. Occluded nucleotides were analyzed by thin layer chromatography and autoradiography. Representative radiograms for independent triplicates are shown. (D) Stably occluded nucleotides, [α^32P]-ATP and [α^32P]-ADP, were quantified by autoradiography. Data were normalized to the vanadate-trapped state. In (A, B, D), mean values ± SD (n = 3) are shown. Figure 5—source data 1. Source Data for Figure 5. Figure 5—figure supplement 1. […] (A) CP^Fs (50 nM each) were incubated with increasing concentrations of detergent-solubilized IF TmrAB in the inward-facing (IF) conformation (absence of Mg-ATP) or TmrA^EQB populated in the outward-facing (OF) conformation, which was trapped in the OF conformation by Mg-ATP (1 mM) after 5 min incubation at 45°C. The difference in fluorescence polarization was normalized to unbound (0%) and 100% bound CP^F. Data were fitted by a one-site binding model. Fluorescence anisotropy was recorded at λex/em = 485/520 nm. […] TmrA^EQB (2 µM) were incubated in the absence and presence of CP^Fs (4 µM each), ATP (1 mM, traced with [α^32P]-ATP), and MgCl2 (5 mM) for 5 min at 4°C or 45°C. Cold ATP (10 mM) was added, and free nucleotides were removed by rapid gel filtration. Occluded nucleotides were analyzed by thin layer chromatography and autoradiography. Representative radiograms for independent triplicates are shown. […] Figure 5—figure supplement 1—source data 1.
To determine equilibrium binding constants, CP^Fs (50 nM) were incubated with increasing concentrations of TmrAB-containing or empty liposomes. To probe the conformational selectivity, CP^Fs (50 nM) were mixed with detergent-solubilized IF TmrAB or OF TmrA^EQB. Before, OF TmrA^EQB was nucleotide-trapped by incubation with ATP (1 mM) and MgCl2 (3 mM) in the absence of CP^Fs for 5 min at 45°C.

[1] = TmrAB, 4 °C, CP^F 50 nM, TmrA^EQB 150 nM (CP6^F), 170 nM (CP12^F), 50 nM (CP13^F), 120 nM (CP14^F)
[2] = TmrAB, 45 °C, no nucleotide, CP^F 50 nM, TmrA^EQB 50-170 nM
[3] = TmrAB, ADP, 45 °C, CP^F 50 nM, TmrA^EQB 50-170 nM
[4] = TmrAB, ATP, 45 °C (OF), CP^F 50 nM, TmrA^EQB 50-170 nM
[5] = listed as 4 °C: CP^F 50 nM without TmrAB

| SMILES | Bound CP^F, fluorescence anisotropy [1] | Bound CP^F, fluorescence anisotropy [2] | Bound CP^F, fluorescence anisotropy [3] | Bound CP^F, fluorescence anisotropy [4] | Binding under nucleotide conditions | Bound CP^F, fluorescence anisotropy [5] |
| --- | --- | --- | --- | --- | --- | --- |
| CC[C@H](C)[C@@H]1NC(=O)[C@H]([C@@H](C)O)NC(=O)[C@H](CC(C)C)NC(=O)[C@H](Cc2c[nH]c3ccccc23)NC(=O)[C@H](Cc2ccccc2)NC(=O)[C@H](CC(N)=O)NC(=O)[C@H](CCC(=O)O)NC(=O)[C@H](CC(C)C)NC(=O)[C@H](CS)NC(=O)[C@H](Cc2c[nH]cn2)NC(=O)[C@H](CO)NC(=O)[C@@H](Cc2ccc(O)cc2)NC(=O)CSC[C@@H](C(=O)NCC(=O)N[C@@H](CO)C(=O)NCCC(=O)NCCC(=O)N[C@@H](CCCNC(=N)N)C(=O)N[C@@H](CCCCNC(=O)c2ccc3c(c2)C(=O)OC32c3ccc(O)cc3Oc3cc(O)ccc32)C(N)=O)NC(=O)[C@H](CC(C)C)NC1=O [CP6] ({CH2CO}-[dY]SHCLENFWLTILCGS[βAla][βAla]RK(5FAM)-NH2; thioether N-14) | 0.143 | 0.132 | 0.129 | 0.050 | preferentially bind under conditions where IF TmrAB is exclusively populated | 0.019 |
| CC(C)C[C@@H]1NC(=O)[C@H](Cc2ccccc2)NC(=O)CNC(=O)[C@H](CO)NC(=O)[C@H](Cc2ccccc2)NC(=O)[C@H](CC(=O)O)NC(=O)[C@@H]2CCCN2C(=O)[C@H]([C@@H](C)O)NC(=O)[C@@H](Cc2ccc(O)cc2)NC(=O)CSC[C@@H](C(=O)NCC(=O)N[C@@H](CO)C(=O)NCCC(=O)NCCC(=O)N[C@@H](CCCNC(=N)N)C(=O)N[C@@H](CCCCNC(=O)c2ccc3c(c2)C(=O)OC32c3ccc(O)cc3Oc3cc(O)ccc32)C(N)=O)NC(=O)[C@H](C)NC(=O)[C@H](CC(N)=O)NC(=O)[C@H](CCCNC(=N)N)NC(=O)[C@H](CC(C)C)NC(=O)[C@H](Cc2ccccc2)NC(=O)[C@H](C)NC1=O [CP12] ({CH2CO}-[dY]TPDFSGFLAFLRNACGS[βAla][βAla]RK(5FAM)-NH2; thioether N-16) | 0.127 | 0.130 | 0.122 | 0.069 | preferentially bind under conditions where IF TmrAB is exclusively populated | 0.023 |
| CC[C@H](C)[C@@H]1NC(=O)[C@H](Cc2c[nH]c3ccccc23)NC(=O)[C@H](CC(N)=O)NC(=O)[C@H](C)NC(=O)[C@H](CO)NC(=O)[C@@H]2CCCN2C(=O)[C@H](CC(=O)O)NC(=O)[C@@H](Cc2ccc(O)cc2)NC(=O)CSC[C@@H](C(=O)NCC(=O)N[C@@H](CO)C(=O)NCCC(=O)NCCC(=O)N[C@@H](CCCNC(=N)N)C(=O)N[C@@H](CCCCNC(=O)c2ccc3c(c2)C(=O)OC32c3ccc(O)cc3Oc3cc(O)ccc32)C(N)=O)NC(=O)[C@H]([C@@H](C)O)NC(=O)[C@H](CC(C)C)NC(=O)[C@H](CC(C)C)NC(=O)[C@H](C(C)C)NC(=O)[C@H](CC(C)C)NC1=O [CP13] ({CH2CO}-[dY]DPSANWILVLLTCGS[βAla][βAla]RK(5FAM)-NH2; thioether N-14; C-terminus assumed) | 0.055 | 0.051 | 0.050 | 0.048 | bind in the absence and presence of ATP and ADP | 0.023 |
| CC(C)[C@@H]1NC(=O)[C@H](Cc2ccccc2)NC(=O)[C@@H]2CCCN2C(=O)[C@H](CC(N)=O)NC(=O)[C@H](Cc2c[nH]c3ccccc23)NC(=O)[C@H](C(C)C)NC(=O)[C@H](Cc2ccc(O)cc2)NC(=O)[C@H](Cc2ccccc2)NC(=O)[C@@H](Cc2ccc(O)cc2)NC(=O)CSC[C@@H](C(=O)NCC(=O)N[C@@H](CO)C(=O)NCCC(=O)NCCC(=O)N[C@@H](CCCNC(=N)N)C(=O)N[C@@H](CCCCNC(=O)c2ccc3c(c2)C(=O)OC32c3ccc(O)cc3Oc3cc(O)ccc32)C(N)=O)NC(=O)[C@H](CCCCN)NC(=O)[C@H](Cc2ccccc2)NC1=O [CP14] ({CH2CO}-[dY]FYVWNPFVFKCGS[βAla][βAla]RK(5FAM)-NH2; thioether N-12; C-terminus assumed) | 0.134 | 0.132 | 0.131 | 0.127 | bind in the absence and presence of ATP and ADP | 0.023 |
